From PubChem BioAssay AID1996
In brackets after ≈: the same amount, converted by molar mass.

Conditions: buffer; pH 7.4; 200.0 µM

Row | solubility kinetic | Compound
1 | 6.4 µg/mL | O=C(C[n+]1ccncc1)c1ccccc1.[Br-]
2 | 5.8 µg/mL (≈ 15 µM) | Cc1ccc(SCC(=O)OCC(=O)Nc2ccc3[nH]c(=O)[nH]c3c2)cc1C
3 | > 33.9 µg/mL | COc1ccc(OC)c([N+](=O)[O-])c1C(N)=O
4 | > 77 µg/mL | CN(C)C(=O)C(CCN1CCC(O)(c2ccc(Cl)cc2)CC1)(c1ccccc1)c1ccccc1.Cl
5 | 17.1 µg/mL (≈ 61 µM) | CCC(O)c1nc2ccccc2n1CCc1ccccc1 (stereo not given)
6 | 0.3 µg/mL (≈ 1.02 µM) | C=CCc1cccc(CNc2nc3ccccc3n2C)c1O
7 | > 44 µg/mL | Cc1ccc(C(=O)Nn2cnc3ccccc3c2=O)cc1C
8 | > 39.6 µg/mL | COC(=O)CN1CC(=O)N(c2ccccc2)C1=S
9 | 11.6 µg/mL (≈ 34.8 µM) | Cc1ccc(NC(=O)CNC(=O)Cc2cccc3ccccc23)nc1
10 | < 0.7 µg/mL | CCCCCCN1C=CC(=C2C(=O)c3ccccc3C2=O)C=C1
11 | > 55.6 µg/mL | CC1(C)CC(=O)c2sc(NS(=O)(=O)c3ccc(Cl)cc3)nc2C1
12 | > 36.8 µg/mL | O=C(Cn1cncn1)N/N=C/c1ccccc1O
13 | 18 µg/mL (≈ 51.1 µM) | COc1ccc(/C=C/C(=O)N(C)C2CCCCC2)cc1Br
14 | > 38 µg/mL | O=C(CSc1ncccn1)NCC1CCCO1 (stereo not given)
15 | 0.9 µg/mL (≈ 3.08 µM) | Cc1cccc(NC(=O)Cn2cc(C=O)c3ccccc32)c1
16 | 29.1 µg/mL (≈ 94.4 µM) | CC(=O)C(C(c1ccccc1)c1c[nH]c2ccccc12)[N+](=O)[O-] (stereo not given)
17 | 10.8 µg/mL (≈ 27.5 µM) | NC(=O)c1ccccc1NC(=O)COC(=O)CSCc1cccc(Cl)c1
18 | > 43.9 µg/mL | CCN(C(=O)C(=O)c1c[nH]c2ccccc12)c1ccccc1
19 | 4.1 µg/mL (≈ 14.8 µM) | COc1ccc(CCC(=O)Nc2ncc(C)s2)cc1
20 | 41.5 µg/mL (≈ 144 µM) | C=CCc1cccc2cc(C(=O)NCCOC)c(=O)oc12
21 | 10.6 µg/mL (≈ 33.1 µM) | O=C(NCc1ccccc1)c1cccnc1Sc1ccccc1
22 | 32.7 µg/mL (≈ 108 µM) | O=C(CNCc1ccc(F)cc1)Nc1ccccc1[N+](=O)[O-]
23 | 3.8 µg/mL (≈ 14.1 µM) | Cc1ccc(OCCNC(=O)c2ccc(C)cc2)cc1
24 | > 43.5 µg/mL | COc1cccc(Nc2c([N+](=O)[O-])cncc2[N+](=O)[O-])c1

Row | solubility kinetic | Compound
25 | 42.5 µg/mL (≈ 132 µM) | COc1cc([N+](=O)[O-])ccc1NC(=O)CSc1nccn1C
26 | 6.6 µg/mL (≈ 22.4 µM) | O=C(CNC(=O)c1ccc(Cl)cc1)NC1CCCCC1
27 | > 47.5 µg/mL | C=CCOCCN(C)C1=NS(=O)(=O)c2ccccc21.Cl
28 | > 60.9 µg/mL | CCN(CCS(=O)(=O)c1ccc(Cl)cc1)Cc1nc2ccccc2c(=O)[nH]1
29 | > 51.8 µg/mL | O=C(c1ccc2c(c1)OCO2)C1CCCN(C(=O)C2CCOCC2)C1 (stereo not given)
30 | 44 µg/mL (≈ 121 µM) | COc1cc2c(cc1OC)CN(CC(=O)Nc1ccc(F)cc1F)CC2
31 | 19.7 µg/mL (≈ 63.1 µM) | Fc1ccc(Br)cc1SCCc1ccncc1
32 | 2.8 µg/mL (≈ 9.38 µM) | CCN(CC)C(=O)N1c2ccccc2Sc2ccccc21
33 | 2.3 µg/mL (≈ 7.61 µM) | COc1cccc(-c2cc(-c3cccnc3)nc(N)c2C#N)c1
34 | 5.1 µg/mL (≈ 16.8 µM) | O=C(c1cc2ccccc2o1)N1CC=C(c2ccccc2)CC1
35 | 1.1 µg/mL (≈ 3.93 µM) | COc1ccc(CNc2nc(Cl)c(C#N)s2)cc1
36 | > 44 µg/mL | COc1ccccc1S(=O)(=O)c1c(C)cc(C)[nH]c1=O
37 | > 45.9 µg/mL | O=C(O)c1ccc(NCc2ccc(Br)cc2)cc1
38 | 17.1 µg/mL (≈ 39.1 µM) | O=C(CSc1ccc([N+](=O)[O-])cc1)Nc1cccc(S(=O)(=O)N2CCOCC2)c1
39 | 5.9 µg/mL (≈ 18.1 µM) | O=C(OCc1ccc([N+](=O)[O-])cc1)c1cc(=O)c2ccccc2o1
40 | < 0.3 µg/mL | CC(=O)N1CCc2c(sc(NC(=O)Cc3ccc(F)cc3)c2C#N)C1
41 | 3.2 µg/mL (≈ 6.78 µM) | CCN(c1ccccc1)S(=O)(=O)c1ccc(Cl)c(NC(=O)CNC(C)c2ccccc2)c1 (stereo not given)
42 | 5.3 µg/mL (≈ 14.3 µM) | COc1ccc(N2CCN(C(=O)c3cc4c(s3)CCCCC4)CC2)cc1
43 | 2.8 µg/mL (≈ 9.58 µM) | CC(C)c1ccc(N2C=Nc3ccc(C(C)C)cc3C2)cc1
44 | 1.7 µg/mL (≈ 5.84 µM) | COC(=O)CSc1nc2cc3c(cc2cc1C)OCO3
45 | > 39.8 µg/mL | CC1CCC(NC(=O)COC(=O)c2ccco2)CC1 (stereo not given)
46 | > 42.2 µg/mL | CCC(=O)NCc1ccc(-c2nc3ncccc3o2)cc1
47 | > 46.6 µg/mL | O=C(O)CN1CCN(C(c2ccccc2)c2ccccc2)CC1
48 | 9.1 µg/mL (≈ 28.2 µM) | CCOc1cnc(-c2c(-c3c(F)cccc3Cl)noc2C)o1

Row | solubility kinetic | Compound
49 | 2.3 µg/mL (≈ 7.11 µM) | CCOc1ccc2nc(N/C(N)=N/S(C)(=O)=O)nc(C)c2c1
50 | 36.8 µg/mL | Cl.OC12CC3C[C@H](C1)C(N1CCOCC1)[C@@H](C3)C2 (stereo not given in full)
51 | > 65.2 µg/mL | Cc1cc(C)n2c(SCC(=O)Nc3cc(S(=O)(=O)N(C)C)ccc3C)nnc2n1
52 | 10.4 µg/mL (≈ 31.9 µM) | COc1ccc(OC)c(-c2c3c([nH]c(=S)c2C#N)CCCC3)c1
53 | 0.8 µg/mL (≈ 2.6 µM) | COc1ccc(N2C(=O)C(F)(F)C2c2ccccc2F)cc1 (stereo not given)
54 | > 46.8 µg/mL | N#Cc1ccc(C(=O)NN2C(=O)NC3(CCCCC3)C2=O)cc1
55 | 48.9 µg/mL (≈ 146 µM) | CC(=O)Oc1ccccc1-n1c(C)nc(=O)c(-c2ccccc2)c1C
56 | > 43.5 µg/mL | O=C(NCCCNC(=O)c1ccco1)c1cccc(F)c1
57 | > 35 µg/mL | COCCCNc1nc2ccccc2[nH]c1=O
58 | 29.2 µg/mL (≈ 93.8 µM) | Cc1cc(C=NCCO)c(C)n1-c1cc(Cl)ccc1Cl
59 | 2.3 µg/mL (≈ 7.61 µM) | CC1CCN(C2=NC(=O)/C(=C/c3cccc(O)c3)S2)CC1
60 | > 42.8 µg/mL | C[C@H](NC(N)=O)C(=O)OCC(=O)NCc1cccs1
61 | 26.6 µg/mL (≈ 67.4 µM) | O=C(CN1C(=O)C(=O)N(C2CCCC2)C1=O)Nc1cc(Cl)ccc1[N+](=O)[O-]
62 | > 51.4 µg/mL | O=C(O)C1CCC1C(=O)Nc1nc(-c2ccc(Cl)s2)cs1 (stereo not given)
63 | 0.8 µg/mL (≈ 2.21 µM) | Cc1cccc2cc(CN(Cc3ccco3)C(=O)c3ccco3)c(=O)[nH]c12
64 | 11.5 µg/mL (≈ 38.3 µM) | COc1ccc2c(c1)[nH]c1c(N3CCSCC3)ncnc12
65 | > 42.1 µg/mL | CN(CC(=O)N1CCc2ccccc2C1)c1ccccc1
66 | > 32 µg/mL | CCOC(=O)CN=C/C(C(C)=O)=C(/C)O
67 | 45.5 µg/mL (≈ 144 µM) | Cc1ncc(CN2CCC(CO)(Cc3ccccc3)CC2)s1
68 | 39.5 µg/mL (≈ 133 µM) | O=C(Cc1ccc([N+](=O)[O-])cc1)N1CCCc2ccccc21
69 | > 30.6 µg/mL | CCOc1ccc(N)cc1OC.Cl
70 | 37.6 µg/mL (≈ 103 µM) | O=C(N1CCN(Cc2ccc3c(c2)OCO3)CC1)C(Cl)(Cl)Cl
71 | < 0.4 µg/mL | COc1cccc(/C=C2\SC(=S)N(c3cccnc3)C2=O)c1OC
72 | > 48.8 µg/mL | CC(NC(=O)CSc1nc2ccccc2n1C)c1ccccc1 (stereo not given)

The next lines start with the molecule.

Row | Compound | solubility kinetic
73 | CC1CN(c2nc(Nc3ccccc3F)nc(N)c2[N+](=O)[O-])CC(C)O1 (stereo not given) | > 54.4 µg/mL
74 | CC1CC(C)CN(C(=O)c2cccc3c2-c2ccccc2C3=O)C1 (stereo not given) | 5 µg/mL (≈ 15.7 µM)
75 | CC1(C)CC(=O)C2=C(C1)OC(N)=C(C#N)C2c1ccoc1 (stereo not given) | > 42.6 µg/mL
76 | O=C(COC(=O)CNC(=O)C1CCCCC1)Nc1ccccc1 | > 47.8 µg/mL
77 | COC(=O)C1CCN(C(=O)/C=C/c2ccc3c(c2)OCO3)CC1 | 34 µg/mL (≈ 107 µM)
78 | O=C(Nc1ccccc1)C1C2CCCCC21 (stereo not given) | 1.9 µg/mL (≈ 8.83 µM)
79 | O=C(NCCC1CCCC1)c1cccs1 | > 33.5 µg/mL
80 | CSc1nc(N2CCN(C)CC2)c2c(c1C#N)CC(C)(C)OC2 | > 49.9 µg/mL
81 | CCCn1c(=O)c(C(=O)Nc2ncccc2O)c(O)c2ccccc21 | 4.1 µg/mL (≈ 12.1 µM)
82 | Cn1c(SCC(=O)NC2CC2)nnc1-c1cccs1 | > 44.2 µg/mL
83 | CCc1cc2c(NC(Cc3ccccc3)C(=O)O)ncnc2s1 (stereo not given) | > 49.1 µg/mL
84 | COc1cccc(NC(=S)NC(=O)c2cccnc2)c1 | 40 µg/mL (≈ 139 µM)
85 | CSCCC(=O)N1CCN(CC(=O)N2CCCC2)CC1 | > 44.9 µg/mL
86 | Cc1ccccc1/C=C/C12NC(=O)CN1c1ccccc1C2(C)C (stereo not given) | 1 µg/mL (≈ 3.14 µM)
87 | Cc1ccccc1CSc1ncnc2ccccc12 | 0.3 µg/mL (≈ 1.13 µM)
88 | COC(=O)c1[nH]c2ccccc2c1NC(=O)C(C)N1CC(C)OC(C)C1 (stereo not given) | > 53.9 µg/mL
89 | Cc1cc(Nc2ccccc2Cl)c2ccccc2n1 | > 40.3 µg/mL
90 | C#CCOc1c(Cl)cc(/C=C2/C(=O)ON=C2C)cc1OCC | 39.4 µg/mL (≈ 123 µM)
91 | Cc1cccc(NC(=O)CN(C)C(=O)c2ccc(N3CCCCCC3)c([N+](=O)[O-])c2)c1C | 11.4 µg/mL (≈ 26 µM)
92 | COc1ccc(NS(=O)(=O)c2ccc3oc(=S)[nH]c3c2)cc1 | > 50.5 µg/mL
93 | Cc1cccc(NC(=O)c2ccc3nccnc3c2)c1C | 37.1 µg/mL (≈ 134 µM)
94 | CC(C)Oc1cccc(C(=O)NC2=NCCS2)c1 | 22 µg/mL (≈ 83.2 µM)
95 | Cc1cc(C)c(S(=O)(=O)Nc2ccc3[nH]c(=O)[nH]c3c2)c(C)c1 | 2.8 µg/mL (≈ 8.45 µM)
96 | Cc1ccc(CCS(=O)(=O)c2ccc(C(C)(C)C)cc2)cn1 | > 47.6 µg/mL

Row | Compound | solubility kinetic
97 | COc1cc(CCC(=O)Nc2ncc(C)s2)cc(OC)c1OC | 18.8 µg/mL (≈ 55.9 µM)
98 | S=C(NCc1ccccc1)NCc1ccccn1 | > 38.6 µg/mL
99 | O=C(Nc1ccc(Cl)cc1)C(Cl)C(=O)c1ccccc1 (stereo not given) | 11.8 µg/mL (≈ 38.3 µM)
100 | COc1ccc(NC(=O)c2ccc3c(c2)OCO3)cc1 | 3.8 µg/mL (≈ 14 µM)
101 | CC(C)(C)NC(=O)c1cccc2c1C(=O)c1ccccc1-2 | 3.9 µg/mL (≈ 14 µM)
102 | Cl.Clc1ccccc1CNCc1ccncc1 | 38.9 µg/mL
103 | O=C(CSc1nccn1-c1cccc(Cl)c1)NO | > 42.6 µg/mL
104 | Cc1cc(C)cc(C(=O)Nc2cccnc2)c1 | > 33.9 µg/mL
105 | CCOCCn1c(CC)nc2ccccc21 | > 32.7 µg/mL
106 | Cc1nc(C)c(Oc2ccc(Cl)cc2Cl)c(=O)[nH]1 | 6.9 µg/mL (≈ 24.2 µM)
107 | O=C(COc1ccccc1[N+](=O)[O-])NCCC1=CCCCC1 | 31.8 µg/mL (≈ 104 µM)
108 | CN(C)CCOC1c2ccccc2CCc2ccc3ccccc3c21.O=C(O)C(=O)O (stereo not given) | > 63.2 µg/mL
109 | CCC(NS(=O)(=O)c1cccs1)c1ccc(C)cc1 (stereo not given) | > 44.3 µg/mL
110 | O=C1c2ccccc2S(=O)(=O)N1Cc1c(F)cccc1Cl | < 0.7 µg/mL
111 | CC1CCCN(C(=O)CCCNC(=O)c2ccc(Cl)cc2)C1 (stereo not given) | > 48.4 µg/mL
112 | CC(C)(C)c1ccccc1NC(=S)NC1CCCC1 | 30.9 µg/mL (≈ 112 µM)
113 | Cc1ccccc1N=C1NC(=O)C(CO)(CO)S1 | > 39.9 µg/mL
114 | N/C(=N/O)c1cccn1Cc1ccccc1[N+](=O)[O-] | > 39 µg/mL
115 | O=C(O)c1ccc(N2C(=O)CCCC2=O)cc1 | 25.9 µg/mL (≈ 111 µM)
116 | CCC1C(C#N)=C(N)Oc2c1c(=O)oc1ccccc21 (stereo not given) | 8.6 µg/mL (≈ 32.1 µM)
117 | CN1CCC(NC(=O)c2ccncc2)CC1 | 29.4 µg/mL (≈ 134 µM)
118 | O=C(c1ccc([N+](=O)[O-])cc1)N1CCN=C1SCc1ccccc1 | 17.4 µg/mL (≈ 51 µM)
119 | ClCC1NCC(c2ccccc2Cl)c2c1[nH]c1ccccc21 (stereo not given) | 19.3 µg/mL (≈ 58.3 µM)
120 | Cc1nc(N2CCOCC2)sc1C=O | > 31.8 µg/mL
